Experimental data: ChEMBL document CHEMBL5055673, “Direct evidence of edge-to-face CH/π interaction for PAR-1 thrombin receptor activation” (Bioorg Med Chem, 2021); call rule not given here
Each block holds one compound with its values, some of them ahead of it. Numbered stars: 1 amine (or outer) side, 2 acyl side, 3 side chain; on linkers, the order of the positions; unused ones are H or OH. Square brackets hold non-standard residues; d marks the D form. Peptide text beside a SMILES is read from it. Phe(3,4,5-F3) = N[C@@H](Cc1cc(F)c(F)c(F)c1)C(=O)O; Phe(F5) = N[C@@H](Cc1c(F)c(F)c(F)c(F)c1F)C(=O)O; X1 = O=C([C@H](Cc1c(F)c(F)cc(F)c1F)N[*:1])[*:2]; X2 = O=C([C@H](Cc1c(F)cc(F)c(F)c1F)N[*:1])[*:2]; X3 = O=C([C@H](Cc1cc(F)c(F)c(F)c1F)N[*:1])[*:2]; Phe(3,5-F2) = N[C@@H](Cc1cc(F)cc(F)c1)C(=O)O; X4 = O=C([C@H](Cc1ccc(F)c(F)c1F)N[*:1])[*:2]; X5 = O=C([C@H](Cc1cc(F)c(F)cc1F)N[*:1])[*:2]; X7 = O=C([C@H](Cc1c(F)cc(F)cc1F)N[*:1])[*:2]; Phe(2,6-F2) = N[C@@H](Cc1c(F)cccc1F)C(=O)O; X6 = O=C([C@H](Cc1cc(F)ccc1F)N[*:1])[*:2]; Phe(4-F) = N[C@@H](Cc1ccc(F)cc1)C(=O)O; Cha = N[C@@H](CC1CCCCC1)C(=O)O

What was measured:
[1] = target: T1, Proteinase-activated receptor 1 (Homo sapiens) (UniProt P25116); assay: Activation of PAR-1 in human platelet-rich plasma assessed as induction of platelet aggregation by turbidimetric method relative to S/Phe/FLLRNP; assay type: cell-based
T1 sequence (whole entry): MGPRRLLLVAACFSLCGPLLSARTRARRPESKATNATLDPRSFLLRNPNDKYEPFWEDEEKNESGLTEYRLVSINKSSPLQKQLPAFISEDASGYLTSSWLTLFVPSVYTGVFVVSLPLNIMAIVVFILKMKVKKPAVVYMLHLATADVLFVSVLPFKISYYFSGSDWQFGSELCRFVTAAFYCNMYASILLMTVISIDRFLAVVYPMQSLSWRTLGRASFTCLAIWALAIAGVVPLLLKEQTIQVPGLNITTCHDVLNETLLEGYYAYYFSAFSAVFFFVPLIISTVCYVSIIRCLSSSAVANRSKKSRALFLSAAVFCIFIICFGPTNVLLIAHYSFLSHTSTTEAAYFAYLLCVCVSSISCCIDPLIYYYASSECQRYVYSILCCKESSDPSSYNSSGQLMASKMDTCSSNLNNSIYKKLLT

[2] = target: T2, Proteinase-activated receptor 1 (Homo sapiens, UniProt P25116); assay: Activation of PAR-1 in human platelet-rich plasma assessed as induction of platelet aggregation by turbidimetric method
T2 sequence (P25116 whole entry): T1 sequence (whole entry)

Homo sapiens [3] = species on record: Homo sapiens; assay: Induction of platelet aggregation in human platelet-rich plasma assessed as decrease in turbidity by turbidimetric method; assay type: functional
Homo sapiens [4] = species on record: Homo sapiens; assay: Induction of platelet aggregation in human platelet-rich plasma assessed as increase in transmissivity by turbidimetric method; assay type: functional

Compound: CC(C)C[C@H](NC(=O)[C@H](Cc1cc(F)ccc1F)NC(=O)[C@@H](N)CO)C(=O)N[C@@H](CC(C)C)C(=O)N[C@@H](CC(N)=O)C(=O)N1CCC[C@H]1C(N)=O (H-S[X6]LLNP-NH2)
Activity [1]: 35%

Compound: CC(C)C[C@H](NC(=O)[C@H](Cc1c(F)cc(F)cc1F)NC(=O)[C@@H](N)CO)C(=O)N[C@@H](CC(C)C)C(=O)N[C@@H](CC(N)=O)C(=O)N1CCC[C@H]1C(N)=O (H-S[X7]LLNP-NH2)
Activity ([1]; filed as activator): 49%

Compound: CC(C)C[C@H](NC(=O)[C@H](CC(C)C)NC(=O)[C@H](Cc1cc(F)c(F)c(F)c1F)NC(=O)[C@@H](N)CO)C(=O)N[C@@H](CCCNC(=N)N)C(=O)N[C@@H](CC(N)=O)C(=O)N1CCC[C@H]1C(N)=O (H-S[X3]LLRNP-NH2)
Activity [1]: 6%

Compound: CC(C)C[C@H](NC(=O)[C@H](Cc1ccc(F)cc1)NC(=O)[C@@H](N)CO)C(=O)N[C@@H](CC(C)C)C(=O)N[C@@H](CC(N)=O)C(=O)N1CCC[C@H]1C(N)=O (H-S[Phe(4-F)]LLNP-NH2)
Activity ([1]; filed as activator): 250%

Compound: CC(C)C[C@H](NC(=O)[C@H](Cc1cc(F)cc(F)c1)NC(=O)[C@@H](N)CO)C(=O)N[C@@H](CC(C)C)C(=O)N[C@@H](CC(N)=O)C(=O)N1CCC[C@H]1C(N)=O (H-S[Phe(3,5-F2)]LLNP-NH2)
Activity [1]: 11%

Compound: CC(C)C[C@H](NC(=O)[C@H](CC(C)C)NC(=O)[C@H](Cc1c(F)cc(F)c(F)c1F)NC(=O)[C@@H](N)CO)C(=O)N[C@@H](CCCNC(=N)N)C(=O)N[C@@H](CC(N)=O)C(=O)N1CCC[C@H]1C(N)=O (H-S[X2]LLRNP-NH2)
Activity [1]: 34%

Compound: CC(C)C[C@H](NC(=O)[C@H](CC(C)C)NC(=O)[C@H](CC1CCCCC1)NC(=O)[C@@H](N)CO)C(=O)N[C@@H](CCCNC(=N)N)C(=O)N[C@@H](CC(N)=O)C(=O)N1CCC[C@H]1C(N)=O (H-S[Cha]LLRNP-NH2)
Activity [1]: 3%

Compound: H-SFLLRNP-NH2
Activity ([1]; filed as activator): 100%
Activity (Homo sapiens [3]): Dose-dependent effect
Activity (Homo sapiens [4]): Dose-dependent effect

Compound: CC(C)C[C@H](NC(=O)[C@H](CC(C)C)NC(=O)[C@H](Cc1c(F)c(F)cc(F)c1F)NC(=O)[C@@H](N)CO)C(=O)N[C@@H](CCCNC(=N)N)C(=O)N[C@@H](CC(N)=O)C(=O)N1CCC[C@H]1C(N)=O (H-S[X1]LLRNP-NH2)
Activity [1]: 0%
EC50 [2]: Not Active

Compound: CC(C)C[C@H](NC(=O)[C@H](Cc1c(F)cc(F)c(F)c1F)NC(=O)[C@@H](N)CO)C(=O)N[C@@H](CC(C)C)C(=O)N[C@@H](CC(N)=O)C(=O)N1CCC[C@H]1C(N)=O (H-S[X2]LLNP-NH2)
Activity [1]: 34%

Compound: CC(C)C[C@H](NC(=O)[C@H](Cc1c(F)c(F)c(F)c(F)c1F)NC(=O)[C@@H](N)CO)C(=O)N[C@@H](CC(C)C)C(=O)N[C@@H](CC(N)=O)C(=O)N1CCC[C@H]1C(N)=O (H-S[Phe(F5)]LLNP-NH2)
Activity [1]: 0%

Continued, values first:

Activity [1]: 16%
Compound: CC(C)C[C@H](NC(=O)[C@H](Cc1cc(F)c(F)c(F)c1)NC(=O)[C@@H](N)CO)C(=O)N[C@@H](CC(C)C)C(=O)N[C@@H](CC(N)=O)C(=O)N1CCC[C@H]1C(N)=O (H-S[Phe(3,4,5-F3)]LLNP-NH2)

Activity ([1]; filed as activator): 180%
Compound: CC(C)C[C@H](NC(=O)[C@H](Cc1cc(F)c(F)cc1F)NC(=O)[C@@H](N)CO)C(=O)N[C@@H](CC(C)C)C(=O)N[C@@H](CC(N)=O)C(=O)N1CCC[C@H]1C(N)=O (H-S[X5]LLNP-NH2)

Activity [1]: 0%
EC50 [2]: Not Active
Compound: CC(C)C[C@H](NC(=O)[C@H](CC(C)C)NC(=O)[C@H](Cc1c(F)c(F)c(F)c(F)c1F)NC(=O)[C@@H](N)CO)C(=O)N[C@@H](CCCNC(=N)N)C(=O)N[C@@H](CC(N)=O)C(=O)N1CCC[C@H]1C(N)=O (H-S[Phe(F5)]LLRNP-NH2)

Activity [1]: 0%
EC50 [2]: Not Active
Compound: H-SALLRNP-NH2

Activity [1]: 6%
Compound: CC(C)C[C@H](NC(=O)[C@H](Cc1cc(F)c(F)c(F)c1F)NC(=O)[C@@H](N)CO)C(=O)N[C@@H](CC(C)C)C(=O)N[C@@H](CC(N)=O)C(=O)N1CCC[C@H]1C(N)=O (H-S[X3]LLNP-NH2)

Activity ([1]; filed as activator): 98%
Compound: CC(C)C[C@H](NC(=O)[C@H](Cc1ccc(F)c(F)c1F)NC(=O)[C@@H](N)CO)C(=O)N[C@@H](CC(C)C)C(=O)N[C@@H](CC(N)=O)C(=O)N1CCC[C@H]1C(N)=O (H-S[X4]LLNP-NH2)

Activity [1]: 11%
Compound: CC(C)C[C@H](NC(=O)[C@H](Cc1c(F)cccc1F)NC(=O)[C@@H](N)CO)C(=O)N[C@@H](CC(C)C)C(=O)N[C@@H](CC(N)=O)C(=O)N1CCC[C@H]1C(N)=O (H-S[Phe(2,6-F2)]LLNP-NH2)

Activity ([1]; filed as activator): 100%
Compound: H-SFLLNP-NH2
